Assay results: US20040235922A1, “Compositions and methods for inducing adipose tissue cell death” (priority 2003, published 2004)
“Also recorded” adds a separate entry of the source.

Columns and labels:
[1] = Clenbuterol feeding for 21 days in WT and GDF-8 KO mice: body weight, weight gain, food intake, feed efficiency (Example 2); type: in vivo; details: 200 ppm in diet
Description: The effects of clenbuterol on muscularity and adiposity in male and female GDF-8 knockout (GDF-8 KO) (n=20) and wild type (WT) mice (n=20) were tested by feeding 0 or 200 ppm clenbuterol for 21 days. […] For all other variables, GDF-8 KO and WT mice responded similarly to clenbuterol.
Animals: Twelve-week old male (n=10) and female (n=10) GDF-8 (−/−) knockout mice and male (n=10) and female (n=10) GDF-8 (+/+) WT mice were used in the study. GDF-8 knockout mice, which were derived from the 129/SvJ mouse strain, were originally obtained from MetaMorphix Inc. and were bred in-house for the study. Mice were housed singly in suspended wire cages in a room maintained at 22±1 C and with a 12:12 hour light/dark cycle. Mice were provided ground rodent chow (ProLab® RMH 2500; Purina Mills, St. Louis, Mo.) and water ad libitum. Mice were cared for in accordance with the Guide for the Care and Use of Laboratory Animals.
Materials: Clenbuterol (Sigma Chemical Company, St. Louis, Mo., item# C5423), was thoroughly mixed into the ground rodent chow to provide a 200 ppm concentration.
Daily Observations: Food intake was measured daily, and body weight was measured on days 0, 3, 7, 10, 14, 17, 20, and 21 at approximately 1430 h during the treatment period. At 15 weeks of age (day 21), a final body weight measurement was obtained approximately one hour prior to euthanasia, and mice were sacrificed by decapitation following CO2 asphyxiation.
Statistical Analysis: The study was analyzed as a 2×2×2 factorial design (N=5/cell). Analysis of variance (SAS) was used to determine significance of main effects of gender, genotype (WT vs. GDF-8 KO) and clenbuterol (0 vs. 200 ppm) and interactions. Statistically significant differences are defined at the 95% confidence interval.
Feed efficiency was calculated as the total food intake (g)/cumulative weight gain (g). There was a trend (p=0.07) for clenbuterol to improve feed efficiency (g feed/g weight gain) (Table 3).

mouse adipocytes = details: in vitro; cited from earlier work
brain and liver = details: in vivo; cited from earlier work
[2] = system: female and male WT and GDF-8 KO mice; assay: Adipose, muscle and heart tissue weights in WT and GDF-8 KO mice (Example 2); details: 200 ppm in diet, 21 days
[3] = Body composition analysis by PIXImus densitometry in WT and GDF-8 KO mice (Example 2); type: in vivo; details: 200 ppm in diet, 21 days
[4] = WT and GDF-8 KO mice, main effect, Mean ± SEM
[5] = WT and GDF-8 KO mice, Mean ± SEM

For CC(C)(C)NCC(O)c1cc(Cl)c(N)c(Cl)c1 (stereo not shown) [Clenbuterol, clenbuterol], the “Effect on final body weight (FBW)” value [1] was “did not significantly affect”, the “Food Intake” value [1, 4] was 4.78 ± 0.16 g/day and the “Wt Gain” value [1, 4] was 0.165 ± 0.01 g/day. For the same compound, the “Feed Efficiency” value ([1]; WT and GDF-8 KO mice, main effect, p = 0.07) was 34.4 g feed/g wt gain, the “Effect on food intake, body weight or body composition” value ([1]; WT or GDF-8 KO mice) was “did not affect” and the “Final Body Wt” value ([1]; female and male WT and GDF-8 KO mice, main effect, Mean ± SEM) was 29.9 ± 1.2 g. For the same compound, the “Feed efficiency in females compared to control” value ([1]; female mice) was “no effect; also recorded: not in females”, the “Weight gain in females compared to control” value ([1]; female mice) was “not in females” and the “Weight gain compared to control” value ([1]; main effect, p<0.05) was “increased”. For the same compound, the “Feed efficiency in males compared to control” value ([1]; male mice) was “more than doubled; also recorded: significantly improved”, the “More efficient (feed efficiency) compared to males fed control diet” value ([1]; male mice) was “more than 250%” and the “Weight gain in males compared to control” value ([1]; male mice) was “significantly increased; also recorded: twice as much”. The “Insulin binding to mouse adipocytes” value (mouse adipocytes) was “decreased”, the “Apoptosis in brain and liver” value (brain and liver) was “protect against apoptosis” and the “EPI/PAR (and RP) fat pad weights compared to control” value [2] was “decreased; also recorded: reduced”. For the same compound, the “Heart weight compared to control” value [2] was “increased”, the “Weights of dissected skeletal muscles” value [2] was “did not affect; also recorded: no effect” and the “EPI/PAR (and RP) fat pad weights compared to control” value ([2]; listed as clenbuterol) was “reduced; also recorded: smaller”. For the same compound, the “Heart weight compared to control” value ([2]; listed as clenbuterol) was “significantly increased”, the “% Fat” value [3, 5] was 15.7 ± 1.0% and the “Bone Mineral Content” value [3, 5] was 0.52 ± 0.02 g. The “Bone Mineral Density” value [3, 5] was 0.06 ± 0.001 g, the Fat [3, 5] was 4.1 ± 0.2 g and the Lean [3, 5] was 22.7 ± 1.1 g. The “Effect on BMD, BMC, area, lean weight, fat weight, or fat %” value ([3]; main effects) was “no effect”.
